Assays:
Canola = experiment: Pot experiment: Zn fertiliser uptake by canola on alkaline and calcareous soils; format: in vivo, Canola (variety Pinnacle); conditions: 21 days growth, chelate rates PEI 0.043, EDTA 0.37 μM/g soil, FIG. 1
From the text: A pot experiment was designed to test the availability of Zn to Canola when applied to calcareous and alkaline soils either as ZnSO4.7H2O or chelated with PEI or EDTA.
Soil samples were collected from field sites known to be Zn responsive at Streaky Bay, South Australia and Birchip, Victoria (Table 1). Topsoils from each location were collected, oven dried and passed through a 2 mm sieve. The ^65Zn labelled experimental fertilisers were mixed with 20 g of soil, which was banded between 100 g of the unfertilised bulk soil. Total nutrient application equated to (μg/g soil) P 60, N 27, applied as TGMAP, and Zn 0.2 as ZnSO4.7H2O. Chelate rates were based on the concentrations required to complex 100% of the Zn in the fertiliser solution. Rates varied depending on the stoichiometry of the Zn-ligand complexes. GEOCHEM was used to predict the degree of chelation in the EDTA fertiliser solution. […]
Two pre-germinated Canola seeds (variety Pinnacle) were transferred to each pot. […] Plant digests were analysed for ^65Zn by gamma spectroscopy and for total nutrient contents by ICP-OES.
Data for shoot dry weight, shoot nutrient concentrations and Zn fertiliser uptake were analysed by analysis of variance (ANOVA). Significance between means was determined using the Least Significant Difference (LSD) test.

canola roots = experiment: Uptake of 65Zn from ice-cold solutions into canola roots (apoplast and symplast); format: in vivo; conditions: 30 minutes, FIG. 4
Method: Each treatment was replicated in triplicate. After 30 minutes the canola roots were removed from the uptake solutions and rinsed with MilliQ water. Those roots used to measure symplastic absorption of Zn were transferred to ice-cold desorption solutions for 30 minutes in order to desorb apoplastically bound Zn. Desorption solutions contained 2 mM Na-MES (pH 6.0), 5 mM CaCl2 and 60 μM ZnCl2. Canola plants were separated into roots and shoots, blotted dry and weighed. Roots were transferred into radioactivity counting vials, to which 4 ml of 5M HNO3 was added. Samples were left overnight to solubilise the cell contents before the ^65Zn contents of roots were determined by gamma spectroscopy.

Canola seedlings = conditions: 1 μM ZnSO4; 24-hour uptake; FIG. 6, FIG. 7
Method: Canola seedlings (Brassica napus var. Pinnacle) were pre-germinated on filter paper moistened with deionised water. On day 6, the seedlings were transferred to complete nutrient solution and moved into the glasshouse. The nutrient solution contained Ca (3.55 mM), Mg (1.45 mM), NO3^− (8.1 mM), H2PO4^− (0.2 mM), Cl (10 μM), Na (1.1 mM), K (1.2 mM), SO4 (1.45 mM), H3BO3 (30 μM), MoO4^2− (0.2M), FeEDDHA (25 μM), Mn (10 μM), Zn (1 μM), Cu (1 μM), buffered at pH 6.0 with 2 mM MES (2-morpholinoethanesulphonic acid, 50% as potassium salt) (Kupper et al, 2000). After 14 days, the canola plants, three per pot, were transferred to pre-treatment solution for 24 hours. Pre-treatment solution contained 2 mM NaMES (pH 6.0) and 0.5 mM CaCl2. Following pre-treatment, the plants were used in the ^65Zn uptake experiments.
Pre-treated canola seedlings were transferred to uptake solutions containing 2 mM KMES (pH 6.0), 0.5 mM CaCl2 and 1 μM ZnSO4 as either the metal salt or chelated with EDTA (control) or the eight forms of PEI described above. […]
After a 24-hour uptake period, canola shoots were harvested, weighed and digested in concentrated HNO3 at 140° C. Digest solutions were transferred to radioactivity counting vials for ^65Zn measurement by gamma spectroscopy. […]

With `O=C(O)CN(CCN(CC(=O)O)CC(=O)O)CC(=O)O` [EDTA, ethylenediaminetetraacetic acid] the “Total Zn uptake by canola” value (Canola; Birchip Sodosol) was “ineffective”, the “Total Zn uptake by canola” value (Canola; Streaky Bay calcareous grey sandy loam) was “ineffective” and the “Uptake of Zn into the root symplast” value (canola roots; 10 μM ZnCl2 chelated by 10 μM EDTA or 5 μM PEI) was “not readily absorbed”. For the same compound, the “Uptake of Zn into the root apoplast” value (canola roots; 10 μM ZnCl2 chelated by 10 μM EDTA) was “not readily absorbed” and the “Zn absorption and translocation to canola shoots (Zn transfer coefficient)” value (Canola seedlings) was “not readily absorbed and translocated to canola shoots”.
